Values quoted from earlier work in paper PMC3826081 (Journal of the American Chemical Society, 2013).

Biological target: PG9
Conditions: read-out: Kd for binding of PG9; NMR studies; glycan-Asn alone; cited from earlier work

Which Kd does the source give for `CC(=O)N[C@@H]1[C@@H](O)[C@H](O[C@@H]2O[C@H](CO)[C@@H](O[C@@H]3O[C@H](CO[C@H]4O[C@H](CO[C@H]5O[C@H](CO)[C@@H](O)[C@H](O)[C@@H]5O)[C@@H](O)[C@H](O[C@H]5O[C@H](CO)[C@@H](O)[C@H](O)[C@@H]5O)[C@@H]4O)[C@@H](O)[C@H](O[C@H]4O[C@H](CO)[C@@H](O)[C@H](O)[C@@H]4O)[C@@H]3O)[C@H](O)[C@H]2NC(C)=O)[C@@H](CO)O[C@H]1NC(=O)C[C@H](N)C(=O)O` [Man5GlcNAc2–Asn] here?
Its Kd is 1000 to 2000 µM.
